Test results published in patent publication US8912195B2, “Alkyl amides as HIV attachment inhibitors” (priority 2010, dated 2014).
Read-outs that look alike come from different tables or passages of the source.

System: single-round infectious reporter virus with HIV-1 LAI envelope
Test: Single-round infectious HIV-1 LAI luciferase reporter virus infection of MT2 cells
Assay type: cell-based
Conditions: Human immunodeficiency virus 1, MT2, 72 h
Source text: • Virus production—Human embryonic Kidney cell line, 293T (HEK 293T), was propagated in Dulbecco's Modified Eagle Medium (Invitrogen, Carlsbad, Calif.) containing 10% fetal Bovine serum (FBS, Sigma, St. Louis, Mo.). The human T-cell leukemia cell MT2 (AIDS Research and Reference Reagent Program, Cat. 237) was propagated in RPMI 1640 (Invitrogen, Carlsbad, Calif.) containing 10% fetal bovine serum (FBS, Hyclone, Logan, Utah) • Virus infection—Single-round infectious reporter virus was produced by co-transfecting HEK 293T cells with plasmide expressing the HIV-1 LAI envelope along with a plasmid containing an HIV-1 LAI proviral cDNA with the envelope gene replaced by a firefly luciferase reporter gene (Chen et al, Ref 41). Transfections were performed using lipofectAMINE PLUS reagent as described by the manufacturer (Invitrogen, Carlsbad, Calif.).
• 1. MT2 cells were plated in black, 384 well plates at a cell density of 5×10^3 cells per well in 25 μl RPMI 1640 containing 10% FBS. • 2. Compound (diluted in dimethylsulfoxide and growth medium) was added to cells at 12.5 μl/well, so that the final assay concentration would be ≦50 nM. • 3. 12.5 μl of single-round infectious reporter virus in Dulbecco's Modified Eagle Medium was added to the plated cells and compound at an approximate multiplicity of infection (MOI) of 0.01, resulting in a final volume of 50 μl per well. • 4. Virus-infected cells were incubated at 37 degrees Celsius, in a CO2 incubator, and harvested 72 h after infection. • 5. Viral infection was monitored by measuring luciferase expression in the infected cells using a luciferase reporter gene assay kit (Steady-Glo, Promega, Madison, Wis.) as described by the manufacturer. Luciferase activity was then quantified by measuring luminescence using an EnVision Multilabel Plate Readers (PerkinElmer, Waltham, Mass.). • 6. The percent inhibition for each compound was calculated by quantifying the level of luciferase expression in cells infected in the presence of each compound as a percentage of that observed for cells infected in the absence of compound and subtracting such a determined value from 100. • 7. An EC50 provides a method for comparing the antiviral potency of the compounds of this disclosure. The effective concentration for fifty percent inhibition (EC50) was calculated with the Microsoft Excel Xlfit curve fitting software. For each compound, curves were generated from percent inhibition calculated at 10 different concentrations by using a four paramenter logistic model (model 205). Table 1 is the key for the data in Table 2.

[1] = read-out: EC50 Group from Table 1

SMILES: CC(C)CC(=O)N1CCN(C(=O)C(=O)c2c[nH]c3c(-n4ccnn4)ncc(F)c23)CC1 [Compound 1001, 1-(4-fluoro-7-(1H-1,2,3-triazol-1-yl)-1H-pyrrolo[2,3-c]pyridin-3-yl)-2-(4-(3-methylbutanoyl)piperazin-1-yl)ethane-1,2-dione]
- EC50 [1]: < 500 nM

SMILES: COc1cnc(-n2ccnn2)c2[nH]cc(C(=O)C(=O)N3CCN(C(=O)C4CCCCC4)CC3)c12 [Compound 1002, 1-(4-(cyclohexanecarbonyl)piperazin-1-yl)-2-(4-methoxy-7-(1H-1,2,3-triazol-1-yl)-1H-pyrrolo[2,3-c]pyridin-3-yl)ethane-1,2-dione]
- EC50 [1]: < 500 nM

SMILES: COc1cnc(-n2ccnn2)c2[nH]cc(C(=O)C(=O)N3CCN(C(=O)[C@]45C[C@H]6C[C@H](C[C@H](C6)C4)C5)CC3)c12 [Compound 1003]
- EC50 [1]: < 500 nM

SMILES: COc1cnc(-n2ccnn2)c2[nH]cc(C(=O)C(=O)N3CCN(C(=O)C4CCCCCC4)CC3)c12 [Compound 1004, 1-(4-(cycloheptanecarbonyl)piperazin-1-yl)-2-(4-methoxy-7-(1H-1,2,3-triazol-1-yl)-1H-pyrrolo[2,3-c]pyridin-3-yl)ethane-1,2-dione]
- EC50: 0.14 nM
- EC50 [1]: < 500 nM

SMILES: CC1CCCC(C(=O)N2CCN(C(=O)C(=O)c3c[nH]c4c(-n5ccnn5)ncc(F)c34)CC2)C1 (stereo not shown) [Compound 2001]
- EC50 [1]: < 500 nM

SMILES: O=C(C(=O)N1CCN(C(=O)C2CCCO2)CC1)c1c[nH]c2c(-n3ccnn3)ncc(F)c12 (stereo not shown) [Compound 2002]
- EC50 [1]: < 500 nM

SMILES: CC1CCCCC1C(=O)N1CCN(C(=O)C(=O)c2c[nH]c3c(-n4ccnn4)ncc(F)c23)CC1 (stereo not shown) [Compound 2003]
- EC50 [1]: < 500 nM

SMILES: O=C(C(=O)N1CCN(C(=O)C23CC4CC(CC2C4)C3)CC1)c1c[nH]c2c(-n3ccnn3)ncc(F)c12 [Compound 2004]
- EC50: 1.15 nM
- EC50 [1]: < 500 nM

SMILES: O=C(C(=O)N1CCN(C(=O)C2CCCCCC2)CC1)c1c[nH]c2c(-n3ccnn3)ncc(F)c12 [Compound 2005]
- EC50: 0.36 nM
- EC50 [1]: < 500 nM

SMILES: N[C@H]1CCCC[C@@H]1C(=O)N1CCN(C(=O)C(=O)c2c[nH]c3c(-n4ccnn4)ncc(F)c23)CC1 [Compound 2006]
- EC50 [1]: > 500 nM

SMILES: C[C@]1(C(=O)N2CCN(C(=O)C(=O)c3c[nH]c4c(-n5ccnn5)ncc(F)c34)CC2)CCCN1 [Compound 2007]
- EC50 [1]: > 500 nM

SMILES: O=C(C(=O)N1CCN(C(=O)C2CC3CCC2C(O)C3)CC1)c1c[nH]c2c(-n3ccnn3)ncc(F)c12 (stereo not shown) [Compound 2008]
- EC50: 5.1 nM
- EC50 [1]: < 500 nM

SMILES: CC(C)(C)C1CCC(C(=O)N2CCN(C(=O)C(=O)c3c[nH]c4c(-n5ccnn5)ncc(F)c34)CC2)CC1 (stereo not shown) [Compound 2009]
- EC50 [1]: > 500 nM

SMILES: O=C(C(=O)N1CCN(C(=O)C2C[C@H]3C[C@@H]2CCC3O)CC1)c1c[nH]c2c(-n3ccnn3)ncc(F)c12 (stereo partly shown) [Compound 2010]
- EC50 [1]: < 500 nM

SMILES: CC(C)=C[C@@H]1[C@@H](C(=O)N2CCN(C(=O)C(=O)c3c[nH]c4c(-n5ccnn5)ncc(F)c34)CC2)C1(C)C [Compound 2011]
- EC50 [1]: > 500 nM

SMILES: C[C@H]1CC[C@H](C(=O)N2CCN(C(=O)C(=O)c3c[nH]c4c(-n5ccnn5)ncc(F)c34)CC2)CC1 [Compound 2012]
- EC50 [1]: < 500 nM

SMILES: NC1(C(=O)N2CCN(C(=O)C(=O)c3c[nH]c4c(-n5ccnn5)ncc(F)c34)CC2)CCCC1 [Compound 2013]
- EC50: 451 nM
- EC50 [1]: < 500 nM

SMILES: O=C(C(=O)N1CCN(C(=O)C2CCOCC2)CC1)c1c[nH]c2c(-n3ccnn3)ncc(F)c12 [Compound 2014]
- EC50: 12.5 nM
- EC50 [1]: < 500 nM

SMILES: O=C(C(=O)N1CCN(C(=O)C2CCOC2)CC1)c1c[nH]c2c(-n3ccnn3)ncc(F)c12 (stereo not shown) [Compound 2015]
- EC50 [1]: < 500 nM

SMILES: O=C(C(=O)N1CCN(C(=O)C23CC4CC(CC(C4)C2)C3)CC1)c1c[nH]c2c(-n3ccnn3)ncc(F)c12 [Compound 2016]
- EC50 [1]: < 500 nM

SMILES: O=C(C(=O)N1CCN(C(=O)C2CCCCC2)CC1)c1c[nH]c2c(-n3ccnn3)ncc(F)c12 [Compound 2017]
- EC50: 0.11 nM
- EC50 [1]: < 500 nM

SMILES: O=C(C(=O)N1CCN(C(=O)C2CCC(O)CC2)CC1)c1c[nH]c2c(-n3ccnn3)ncc(F)c12 (stereo not shown) [Compound 2018]
- EC50 [1]: < 500 nM

SMILES: O=C(C(=O)N1CCN(C(=O)[C@H](O)c2ccccc2)CC1)c1c[nH]c2c(-n3ccnn3)ncc(F)c12 [Compound 2019]
- EC50: 344 nM
- EC50 [1]: < 500 nM

SMILES: CN1CCC(C(=O)N2CCN(C(=O)C(=O)c3c[nH]c4c(-n5ccnn5)ncc(F)c34)CC2)CC1 [Compound 2020]
- EC50 [1]: > 500 nM

SMILES: CN1CCCC(C(=O)N2CCN(C(=O)C(=O)c3c[nH]c4c(-n5ccnn5)ncc(F)c34)CC2)C1 (stereo not shown) [Compound 2021]
- EC50: 76.9 nM
- EC50 [1]: < 500 nM

SMILES: O=C(C(=O)N1CCN(C(=O)C2CCC(F)(F)CC2)CC1)c1c[nH]c2c(-n3ccnn3)ncc(F)c12 [Compound 2022]
- EC50 [1]: < 500 nM

SMILES: O=C(C(=O)N1CCN(C(=O)[C@@H](O)c2ccccc2)CC1)c1c[nH]c2c(-n3ccnn3)ncc(F)c12 [Compound 2023]
- EC50 [1]: < 500 nM

SMILES: O=C(C(=O)N1CCN(C(=O)C2CCCOC2)CC1)c1c[nH]c2c(-n3ccnn3)ncc(F)c12 (stereo not shown) [Compound 2024]
- EC50 [1]: < 500 nM

SMILES: CC1(C)CC(C(=O)N2CCN(C(=O)C(=O)c3c[nH]c4c(-n5ccnn5)ncc(F)c34)CC2)CC(C)(C)N1 [Compound 2025]
- EC50 [1]: > 500 nM

SMILES: CC(C)(C)OC(=O)N[C@@H](C(=O)N1CCN(C(=O)C(=O)c2c[nH]c3c(-n4ccnn4)ncc(F)c23)CC1)c1ccccc1 [Compound 2026]
- EC50 [1]: > 500 nM

SMILES: CC[C@@]12CC3C[C@@](O)(C1)C[C@](C(=O)N1CCN(C(=O)C(=O)c4c[nH]c5c(-n6ccnn6)ncc(F)c45)CC1)(C3)C2 [Compound 2027]
- EC50 [1]: < 500 nM

SMILES: O=CN1CCCC(C(=O)N2CCN(C(=O)C(=O)c3c[nH]c4c(-n5ccnn5)ncc(F)c34)CC2)C1 (stereo not shown) [Compound 2028]
- EC50: 25.5 nM
- EC50 [1]: < 500 nM

SMILES: CN1CCCCC1C(=O)N1CCN(C(=O)C(=O)c2c[nH]c3c(-n4ccnn4)ncc(F)c23)CC1 (stereo not shown) [Compound 2029]
- EC50 [1]: > 500 nM

SMILES: CN1CCC[C@H]1C(=O)N1CCN(C(=O)C(=O)c2c[nH]c3c(-n4ccnn4)ncc(F)c23)CC1 [Compound 2030]
- EC50 [1]: > 500 nM

SMILES: CC(C)(C)OC(=O)N[C@H](C(=O)N1CCN(C(=O)C(=O)c2c[nH]c3c(-n4ccnn4)ncc(F)c23)CC1)c1ccccc1 [Compound 2031]
- EC50 [1]: > 500 nM

SMILES: C[C@]12C[C@]3(C)C[C@](N)(C1)C[C@](C(=O)N1CCN(C(=O)C(=O)c4c[nH]c5c(-n6ccnn6)ncc(F)c45)CC1)(C2)C3 [Compound 2032]
- EC50 [1]: > 500 nM

SMILES: CC(C)(C)OC(=O)N1CCC(C(=O)N2CCN(C(=O)C(=O)c3c[nH]c4c(-n5ccnn5)ncc(F)c34)CC2)C1 (stereo not shown) [Compound 2033]
- EC50 [1]: > 500 nM

SMILES: CC(C)(C)OC(=O)N1CCCC(C(=O)N2CCN(C(=O)C(=O)c3c[nH]c4c(-n5ccnn5)ncc(F)c34)CC2)C1 (stereo not shown) [Compound 2034]
- EC50 [1]: > 500 nM

SMILES: CC(C)(C)OC(=O)N1CCC(C(=O)N2CCN(C(=O)C(=O)c3c[nH]c4c(-n5ccnn5)ncc(F)c34)CC2)CC1 [Compound 2035]
- EC50 [1]: > 500 nM

SMILES: CN(C)[C@@H](C(=O)N1CCN(C(=O)C(=O)c2c[nH]c3c(-n4ccnn4)ncc(F)c23)CC1)c1ccccc1 [Compound 2036]
- EC50 [1]: > 500 nM

SMILES: CN(C)[C@H](C(=O)N1CCN(C(=O)C(=O)c2c[nH]c3c(-n4ccnn4)ncc(F)c23)CC1)c1ccccc1 [Compound 2037]
- EC50 [1]: > 500 nM

SMILES: O=C(C(=O)N1CCN(C(=O)C2CC2)CC1)c1c[nH]c2c(-n3ccnn3)ncc(F)c12 [Compound 2038]
- EC50 [1]: < 500 nM

SMILES: CC(C)C(=O)N1CCN(C(=O)C(=O)c2c[nH]c3c(-n4ccnn4)ncc(F)c23)CC1 [Compound 2039]
- EC50 [1]: < 500 nM

SMILES: CCCCCC(=O)N1CCN(C(=O)C(=O)c2c[nH]c3c(-n4cnc(C)n4)ncc(OC)c23)CC1 [Compound 2040]
- EC50 [1]: < 500 nM

SMILES: COc1cnc(-n2cnc(C)n2)c2[nH]cc(C(=O)C(=O)N3CCN(C(=O)CCC4CCCC4)CC3)c12 [Compound 2041]
- EC50 [1]: < 500 nM

SMILES: CCCCCC(=O)N1CCN(C(=O)C(=O)c2c[nH]c3c(-n4ccnn4)ncc(F)c23)CC1 [Compound 2042]
- EC50 [1]: < 500 nM

SMILES: O=C(C(=O)N1CCN(C(=O)CCC2CCCC2)CC1)c1c[nH]c2c(-n3ccnn3)ncc(F)c12 [Compound 2043]
- EC50 [1]: < 500 nM

SMILES: COCC(=O)N1CCN(C(=O)C(=O)c2c[nH]c3c(-n4ccnn4)ncc(F)c23)CC1 [Compound 2044]
- EC50 [1]: < 500 nM

SMILES: CN(C)CC(=O)N1CCN(C(=O)C(=O)c2c[nH]c3c(-n4ccnn4)ncc(F)c23)CC1 [Compound 2045]
- EC50 [1]: > 500 nM

SMILES: CCC(=O)N1CCN(C(=O)C(=O)c2c[nH]c3c(-n4ccnn4)ncc(F)c23)CC1 [Compound 2046]
- EC50: 6.88 nM
- EC50 [1]: < 500 nM
